# From ChEMBL document CHEMBL3396950, “Enantioselective synthesis of dictyoceratin-A (smenospondiol) and -C, hypoxia-selective growth inhibitors from marine sponge” (Bioorg Med Chem, 2015)
# Test system: DU-145
# Assay: Antiproliferative activity against human DU145 cells assessed as growth inhibition treated after 12 hrs hypoxic condition and incubated additional 24 hrs under hypoxic condition by MTT assay
# Type: functional, cell-based
row,Structure (SMILES),inhibition
1,C=C1CCC[C@@H]2[C@@](C)(Cc3cc(C(=O)OC)ccc3O)[C@H](C)CC[C@@]12C,Dose-dependent effect
2,C=C1CCC[C@@H]2[C@@](C)(Cc3cc(C(=O)OC)cc(O)c3O)[C@H](C)CC[C@@]12C,Dose-dependent effect
3,C=C1CCC[C@H]2[C@](C)(Cc3cc(C(=O)OC)cc(O)c3O)[C@@H](C)CC[C@]12C,Dose-dependent effect
4,C=C1CCC[C@H]2[C@](C)(Cc3cc(C(=O)OC)ccc3O)[C@@H](C)CC[C@]12C,Dose-dependent effect
